Experimental findings from PMC11557590 (Nature Communications, 2024) are described below.

This experiment addresses FLAGELLIN-SENSING 2 (FLS2) (Arabidopsis thaliana, UniProt Q9FL28). Kind of experiment: microscale thermophoresis. It counts as binding. (Microscale thermophoresis detects binding through changes in fluorescence in a small temperature gradient.)

FLAGELLIN-SENSING 2 (FLS2), sequence (Q9FL28 24-804): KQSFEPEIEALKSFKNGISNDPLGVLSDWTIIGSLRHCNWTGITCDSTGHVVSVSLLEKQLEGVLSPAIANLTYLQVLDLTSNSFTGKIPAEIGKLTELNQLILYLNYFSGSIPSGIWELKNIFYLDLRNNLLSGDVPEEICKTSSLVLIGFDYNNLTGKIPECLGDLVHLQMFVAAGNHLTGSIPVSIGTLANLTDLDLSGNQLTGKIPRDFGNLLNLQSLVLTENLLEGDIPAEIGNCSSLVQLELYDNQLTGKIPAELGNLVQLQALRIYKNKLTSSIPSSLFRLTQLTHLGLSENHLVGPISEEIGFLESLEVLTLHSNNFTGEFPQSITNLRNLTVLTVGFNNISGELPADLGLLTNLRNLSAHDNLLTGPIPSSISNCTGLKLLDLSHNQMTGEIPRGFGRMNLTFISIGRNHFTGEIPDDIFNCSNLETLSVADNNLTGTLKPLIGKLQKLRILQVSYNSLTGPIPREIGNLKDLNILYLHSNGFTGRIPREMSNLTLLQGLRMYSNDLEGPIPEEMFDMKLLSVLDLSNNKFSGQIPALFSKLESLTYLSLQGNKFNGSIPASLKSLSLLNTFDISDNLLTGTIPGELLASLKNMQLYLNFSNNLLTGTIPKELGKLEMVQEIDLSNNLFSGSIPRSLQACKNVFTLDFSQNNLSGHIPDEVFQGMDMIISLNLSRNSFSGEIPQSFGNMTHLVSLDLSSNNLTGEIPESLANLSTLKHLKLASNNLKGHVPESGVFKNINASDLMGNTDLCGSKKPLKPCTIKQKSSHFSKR

What is called Kd is the free concentration of one partner at which half of the binding sites on the other are occupied at equilibrium, for simple one-to-one binding. A high value points to weaker binding. With `C=C(C)COc1ccc2c(C)c(CC(=O)N3CCN(CC(=O)NCCN(C)C)CC3)c(=O)oc2c1C` [FIC04], the dissociation constant (Kd) turned out to be 93.9 ± 19.5 µM.
